Experimental data: patent US10653676B2 (Dana-Farber Cancer Institute, Inc., priority 2010, dated 2020)

What was measured:
HeLa cells = test: clonogenic assay; format: cell-based, human; conditions: FIG. 9B
Experimental: FIG. 9 is a composite figure showing that C527 causes DNA damage and inhibits the proliferation of tumor cells. […] HeLa cells were treated with C527 at the indicated concentrations for 24 hrs, and cells were subjected to immunoblotting. Mitomycin C (MMC, 1 μM) was used as a positive control. […] HeLa cells were seeded in a 6-well plate and treated with C527 at the indicated concentrations. Cell proliferation was evaluated using a clonogenic assay.
Cells were seeded in 6-well plate at 500 cells per well followed by treatment with C527. Colonies were allowed to grow for 7-10 days, fixed with a solution containing 10% Methanol and 10% acetic acid at room temperature for 15 min and then stained with 1% crystal violet in methanol. Colonies of >50 cells were counted, and the surviving fraction was calculated and normalized to untreated control.
Impaired HR integrity may lead to genotoxic effect. Genotoxic agents are known to directly activate DNA damage response pathways, resulting in FANCD2 monoubiquitination and CHK1 phosphorylation (FIG. 9A).

USP5 = biological target: T1, USP5 (Homo sapiens, UniProt P45974); test: ubiquitin-AMC assay with USP5; format: biochemical
T1 construct: purchased Boston Biochem
T1 sequence (P45974 1-858): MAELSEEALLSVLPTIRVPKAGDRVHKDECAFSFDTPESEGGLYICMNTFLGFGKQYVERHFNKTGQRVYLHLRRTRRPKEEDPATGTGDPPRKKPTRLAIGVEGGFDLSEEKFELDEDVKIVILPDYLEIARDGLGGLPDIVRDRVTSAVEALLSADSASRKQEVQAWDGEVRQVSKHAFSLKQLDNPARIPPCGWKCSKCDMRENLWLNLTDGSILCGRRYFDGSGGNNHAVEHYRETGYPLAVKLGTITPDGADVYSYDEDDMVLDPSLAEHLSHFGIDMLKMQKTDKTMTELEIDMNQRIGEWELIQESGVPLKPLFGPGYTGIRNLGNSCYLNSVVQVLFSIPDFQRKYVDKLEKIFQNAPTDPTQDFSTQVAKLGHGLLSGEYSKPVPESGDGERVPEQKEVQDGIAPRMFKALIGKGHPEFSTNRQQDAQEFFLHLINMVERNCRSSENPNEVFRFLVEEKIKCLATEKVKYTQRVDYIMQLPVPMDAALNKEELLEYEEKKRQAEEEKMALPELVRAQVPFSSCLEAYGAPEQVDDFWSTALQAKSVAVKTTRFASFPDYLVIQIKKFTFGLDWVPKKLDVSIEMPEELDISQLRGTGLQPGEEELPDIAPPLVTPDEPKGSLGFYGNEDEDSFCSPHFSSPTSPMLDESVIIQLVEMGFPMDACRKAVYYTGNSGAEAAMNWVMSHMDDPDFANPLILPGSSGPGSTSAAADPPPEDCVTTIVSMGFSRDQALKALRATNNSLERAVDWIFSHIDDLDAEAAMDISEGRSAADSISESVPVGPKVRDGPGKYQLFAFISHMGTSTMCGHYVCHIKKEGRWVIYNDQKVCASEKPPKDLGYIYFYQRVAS
Experimental: FIG. 6 is a composite figure showing that C527 is a pan-deubiqutinating enzyme inhibitor […]. Ubiquitin-AMC assay was performed using purified (FIG. 6A) USP12/UAF1/WDR20 (FIG. 6B) USP5 and (FIG. 6C) UCH-L1. Enzymes were incubated with DMSO or C527 at indicated concentrations for 3 h, followed by the addition of Ub-AMC at 0.5 μM final concentration. The fluorescence at […] was measured to indicate the enzymatic activity. FIG. 6D is a summary showing the IC50 of C527 against the indicated enzymes.
The in vitro enzymatic assays were performed using purified proteins from Sf9 cells as described previously (Cohn et al.). The assays using ubiquitin-AMC (Ub-7-amido-4-methylcoumarin; Boston Biochem) as substrate was carried out in a reaction buffer containing 20 mM HEPES-KOH (pH 7.8), 20 mM NaCl, 0.1 mg/ml ovalbumin, 0.5 mM EDTA and 10 mM dithiothreitol. The fluorescence was measured by FluoStar Galaxy Fluorometer (BMG Labtech). For the Ub-vinylsulfone (VS) assay, the proteins were incubated with Ub-VS at 0.5 μM final concentration for 1 h at 30° C., followed by the immunoblotting analysis.
To examine the specificity of C527 in USP1/UAF1 inhibition, its ability to inhibit other DUB enzymes in vitro was examined. […] Moreover, the active complex of USP12 contains an additional WD40 subunit (WDR20). […]

O=C1c2ccccc2C(=O)c2oc(-c3ccc(F)cc3)nc21 [Formula IV (527)]
cell proliferation (HeLa cells): inhibited cell proliferation | IC50 compared with USP1/UAF1 (USP5; FIG. 6D): slightly higher | DUB activity of the USP5 enzyme (USP5; in vitro, FIG. 6B): inhibited
